Patent US20140100216A1, “STIMULATORS OF INCRETIN HORMONES SECRETION, METHOD FOR PREPARATION AND USE THEREOF” (priority 2011, published 2014)

Key:
[1] = target: T1, human TGR5 (hTGR5) receptors (Homo sapiens, UniProt Q8TDU6); assay: Agonistic activity towards TGR5 receptors, increase of intracellular cAMP in HEK-293 cells; type: cell-based; conditions: HEK-293 cells expressing hTGR5, read-out: Activity (agonistic activity, EC50 class)
T1 construct: expressed in transfected cells; host or cells: HEK-293
T1 sequence (Q8TDU6 1-330): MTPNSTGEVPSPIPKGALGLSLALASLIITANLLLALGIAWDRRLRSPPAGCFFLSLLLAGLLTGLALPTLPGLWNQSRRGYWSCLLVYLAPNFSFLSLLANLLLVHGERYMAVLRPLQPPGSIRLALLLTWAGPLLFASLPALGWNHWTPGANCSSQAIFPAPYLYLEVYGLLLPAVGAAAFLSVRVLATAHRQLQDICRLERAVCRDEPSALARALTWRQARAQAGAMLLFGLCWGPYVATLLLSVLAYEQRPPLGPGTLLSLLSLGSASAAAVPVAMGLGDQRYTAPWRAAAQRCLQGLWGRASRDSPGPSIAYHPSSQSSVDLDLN
Protocol: Screening of compounds of the general formula 1 was carried out in experiments on cells of HEK-293 line, in which human TGR5 (hTGR5) receptors were expressed. Agonistic activity of compounds was estimated by increasing of intracellular cAMP concentration.

[2] = tested on: diabesity mice of db/db line; assay: Influence of rectal administration of bile acid GDC on blood glucose level; type: in vivo; conditions: male db/db mice
Protocol: The influence of rectal administration of glycodeoxycholic acid (GDC) on glucose level in blood was studied at diabesity mice of db/db line. Glucose level at male db/db mice (39.5 g) was measured 24 hs before and at the moment of rectal administration, and then in 1, 2, 3, 4, 5, 6, and 24 hs afterwards. […] The gel was prepared on the base of methyl cellulose water solution (1%) and Tween-80 (2%). GDC BA administration in both doses effectively and statistically valid reduced glucose concentration in plasma of diabesity mice of db/db line (on 24%—at 50 mmol and on 20% at 5 mmol).

[3] = tested on: diabesity mice of db/db line; assay: Influence of rectal BA administration on weight change at diabesity; type: in vivo; conditions: GDC 5 and 50 mmol gel rectally + Sitagliptin 30 mg/kg peroral, weighed 2 days after administration
Protocol: Influence of rectal administration of glycodeoxycholic acid (GDC) on weight change of mice of db/db line at diabesity was investigated. […] The gel was prepared on the base of methyl cellulose water solution (1%) and Tween-80 (2%). The animals were weighted 2 days before the experiment, at the moment of administration and 2 days after administration of compositions.

Structure (SMILES)	EC50 [1] [µM]	also measured
CC(C)(C)NC(=O)C1c2cc(F)ccc2OCCN1Cc1ccccc1-c1ccncc1 (stereo not drawn) [Compound 18, 4-[2-(pyridin-4-yl)benzyl]-7-fluoro-2,3,4,5-tetrahydrobenzo[f][1,4]oxazepine-5-carboxylic acid tert-butylamide]	1 to 10	
Cc1ccc(-c2ccccc2CN2C(=O)COc3ccccc3C2C(=O)NC(C)(C)C)cc1 (stereo not drawn) [Compound 96, 4-[2-(4-methylphenyl)benzyl]-3-oxo-2,3,4,5-tetrahydrobenzo[f][1,4]oxazepine-5-carboxylic acid tert-butylamide]	1 to 10	
CC(C)(C)NC(=O)C1c2cc(F)ccc2OCCN1Cc1ccccc1-c1ccc(F)cc1 (stereo not drawn) [Compound 50, 4-[2-(4-fluorophenyl)benzyl]-7-fluoro-2,3,4,5-tetrahydrobenzo[f][1,4]oxazepine-5-carboxylic acid tert-butylamide]	< 1	
O=C(NC1CCCC1)C1c2cc(C(F)(F)F)ccc2OCC(=O)N1Cc1cccc(-c2ccccc2)c1 (stereo not drawn) [Compound 81, 4-(3-phenylbenzyl)-3-oxo-7-trifluoromethyl-2,3,4,5-tetrahydrobenzo[f][1,4]oxazepine-5-carboxylic acid cyclopentylamide]	> 10	
O=C(NC1CCCCC1)C1c2cc(C(F)(F)F)ccc2OCCN1Cc1cccc(-c2ccccc2)c1 (stereo not drawn) [Compound 15, 4-(3-phenylbenzyl)-7-trifluoromethyl-2,3,4,5-tetrahydrobenzo[f][1,4]oxazepine-5-carboxylic acid cyclohexylamide]	< 1	
N[C@@H](CC(=O)N1CCn2c(nnc2C(F)(F)F)C1)Cc1cc(F)c(F)cc1F [Sitagliptin, reference compound]		lowering of glucose level in blood plasma ([2]; Sitagliptin alone (vehicle gel + Sitagliptin 30 mg/kg)): 5-10%
CC(C)(C)NC(=O)C1c2ccccc2OCC(=O)N1Cc1ccccc1-c1ccncc1 (stereo not drawn) [Compound 90, 4-[2-(pyridin-4-yl)benzyl]-3-oxo-2,3,4,5-tetrahydrobenzo[f][1,4]oxazepine-5-carboxylic acid tert-butylamide]	> 10	
O=C(NC1CCCC1)C1c2cc(C(F)(F)F)ccc2OCCN1Cc1cccc(-c2ccccc2)c1 (stereo not drawn) [Compound 14, 4-(3-pheylbenzyl)-7-trifluoromethyl-2,3,4,5-tetrahydrobenzo[f][1,4]oxazepine-5-carboxylic acid cyclopentylamide]	> 10	
CC(CCC(=O)NCC(=O)O)C1CCC2C3CCC4CC(O)CCC4(C)C3CC(O)C12C (stereo not drawn) [GDC, glycodeoxycholic acid]		reduction of glucose concentration in plasma ([2]; GDC 5 mmol gel rectally + Sitagliptin 30 mg/kg perorally 15 min before): 20%; reduction of glucose concentration in plasma ([2]; GDC 50 mmol gel rectally + Sitagliptin 30 mg/kg perorally 15 min before): 24%; weight change of animals [3]: effectively and statistically-valid reduced weights of experimental animals
Cc1cccc(-c2ccccc2CN2C(=O)COc3ccccc3C2C(=O)NC(C)(C)C)c1 (stereo not drawn) [Compound 97, 4-[2-(3-methylphenyl)benzyl]-3-oxo-2,3,4,5-tetrahydrobenzo[f][1,4]oxazepine-5-carboxylic acid tert-butylamide]	> 10	
